From patent publication US20260250320A1, “LIPIDATED PEPTIDE INHIBITORS OF INTERLEUKIN-23 RECEPTOR” (Janssen Pharmaceutica NV, priority 2023, published 2026)
*1 amine or outer side, *2 acyl side, *3 side chain or, on linkers, in order; H or OH if unused. Where a SMILES comes first, the peptide text is derived from it. Bridges are numbered along the chain shown (N, C = ends). Side-chain parts run from the residue outwards. [ ]: non-standard residue; d: D form. The star is where a group is joined. ξ: configuration not given here. Me3N+(CH2)2O(CH2)2O(CH2)2CO = C[N+](C)(C)CCOCCOCCC(=O)*; PEG12 = NCCOCCOCCOCCOCCOCCOCCOCCOCCOCCOCCOCCOCCC(=O)O; NH(CH2CH2O)2CH2CH2NMe3+ = C[N+](C)(C)CCOCCOCCN*; Trp(7-Me) = Cc1cccc2c(C[C@H](N)C(=O)O)c[nH]c12; C20 diacid = O=C(O)CCCCCCCCCCCCCCCCCCC(=O)*; C18 diacid = O=C(O)CCCCCCCCCCCCCCCCC(=O)*; CH2CH2OCH2CH2NMe3+ = C[N+](C)(C)CCOCC*; γGlu = O=C(O)[C@H](CCC(=O)[*:2])N[*:1]; 2Nal = N[C@@H](Cc1ccc2ccccc2c1)C(=O)O; AEF = NCCOc1ccc(C[C@H](N)C(=O)O)cc1; X2 = C[N+](C)(C)C[C@@H](CC(=O)O)N*; 2Pal = N[C@@H](Cc1ccccn1)C(=O)O; 3Pal = N[C@@H](Cc1cccnc1)C(=O)O; Lys(Me) = CNCCCC[C@H](N)C(=O)O; Pen = CC(C)(S)[C@H](N)C(=O)O; Suc = O=C(CCC(=O)[*:2])[*:1]; Thp = NC1(C(=O)O)CCOCC1; X1 = C[N+](C)(C)CCCCC*; AEEA = NCCOCCOCC(=O)O; ξK = NCCCCC(N)C(=O)O; Sar = CNCC(=O)O

Key:
[1] = molecular target: T1, IL-23R (Homo sapiens, UniProt Q5VWK5); experiment: IL23R Reporter Assay; type: cell-based; settings: HEK293 cells containing IL-23R, IL-12Rβ1 and STAT-inducible firefly luciferase reporter; 10 ng/mL IL-23 (EC90); 5 h
T1 construct: HEK293 cells containing IL-23R, IL-12Rβ1 and a firefly luciferase reporter gene driven by a STAT-inducible promoter (Promega); host or cells: HEK293
T1 sequence (Q5VWK5 24-629): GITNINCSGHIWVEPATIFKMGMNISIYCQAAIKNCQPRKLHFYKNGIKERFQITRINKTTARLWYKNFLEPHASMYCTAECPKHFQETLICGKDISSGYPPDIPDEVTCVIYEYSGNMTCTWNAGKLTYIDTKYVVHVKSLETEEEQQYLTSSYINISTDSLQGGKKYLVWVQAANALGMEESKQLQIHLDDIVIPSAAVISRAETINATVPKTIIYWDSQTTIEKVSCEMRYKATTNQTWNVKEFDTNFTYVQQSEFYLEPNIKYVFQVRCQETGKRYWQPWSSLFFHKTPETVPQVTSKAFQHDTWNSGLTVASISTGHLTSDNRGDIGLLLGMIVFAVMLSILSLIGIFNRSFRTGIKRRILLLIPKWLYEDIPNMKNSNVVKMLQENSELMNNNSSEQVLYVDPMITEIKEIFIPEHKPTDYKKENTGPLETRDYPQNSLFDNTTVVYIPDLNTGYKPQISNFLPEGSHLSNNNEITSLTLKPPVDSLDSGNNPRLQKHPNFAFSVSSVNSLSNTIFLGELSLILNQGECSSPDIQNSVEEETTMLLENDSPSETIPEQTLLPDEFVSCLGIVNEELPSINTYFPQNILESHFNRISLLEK
In short: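 IC50 values were fitted with a 4-parameter Hill equation to luciferase signal, scaled between IL-23-only wells (0% inhibition) and 30 μM reference inhibitor (100%). The readout was a STAT-inducible reporter in IL-23R/IL-12Rβ1 HEK293 cells, stimulated with added 10 ng/mL IL-23 (EC90) for 5 h at 37° C and developed with BioGlo.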

[2] = test system: IL-23-stimulated phosphorylated STAT3 in peripheral blood mononuclear cells (PBMCs); experiment: PBMC pSTAT3 Assay; type: cell-based; settings: PBMCs from healthy donors; 30 min preincubation with peptide; IL-23 5 ng/mL for 30 min; phospho-STAT3 by MSD
In short: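 Phospho-STAT3 quantified by Meso Scale assay in lysates of PBMCs exposed to IL-23 (5 ng/mL, 30 min, 37 °C) after 30 min peptide pretreatment. Cells were cryopreserved donor PBMCs activated 4 days with anti-CD3 plus IL-1β (100 ng/mL) and starved ~4 h; IC50 reported.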

Row | SMILES | IC50 [1] | IC50 [2]
1 | CC(=O)NCCCC[C@@H]1NC(=O)[C@H](Cc2c[nH]c3c(C)cccc23)NC(=O)[C@H]([C@@H](C)O)NC(=O)[C@H](CCCCNC(=O)COCCOCCNC(=O)COCCOCCNC(=O)CC[C@H](NC(=O)CCCCCCCCCCCCCCCCC(=O)O)C(=O)O)NC(=O)[C@@H](NC(=O)[C@@H](CCCNC(=N)N)NC(C)=O)C(C)(C)SSC(C)(C)[C@@H](C(=O)N[C@@H](Cc2ccc(OCCN)cc2)C(=O)N[C@@H](Cc2ccc3ccccc3c2)C(=O)NC2(C(=O)N[C@@H](CCCCN(C)C(=O)CCOCCOCC[N+](C)(C)C)C(=O)N[C@@H](CC(N)=O)C(=O)N[C@@H](Cc3ccccn3)C(=O)N(C)CC(N)=O)CCOCC2)NC1=O [compound 74, MeCO-r-Pen(3)-K(PEG2PEG2gEC18OH)-T-7MeW-K(Ac)-Pen(3)-AEF-2Nal-THP-K(NMecPEG3a)-N-3Pya-Sar-CONH2] (Ac-[dR][Pen]K([AEEA-AEEA-γGlu-C18 diacid])T[Trp(7-Me)]K(Ac)[Pen][AEF][2Nal][Thp][Lys(Me)](Me3N+(CH2)2O(CH2)2O(CH2)2CO)N[2Pal][Sar]-NH2; disulfide 2-7) | < 50 nM | < 0.5 nM
2 | CC(=O)N(C)CCCC[C@@H]1NC(=O)[C@H](Cc2c[nH]c3c(C)cccc23)NC(=O)[C@H]([C@@H](C)O)NC(=O)[C@H](CC(=O)N(C)C)NC(=O)[C@@H](NC(=O)CCOCCOCCOCCOCCOCCOCCOCCOCCOCCOCCOCCOCCNC(=O)CC[C@H](NC(=O)CCCCCCCCCCCCCCCCC(=O)O)C(=O)O)C(C)(C)SSC(C)(C)[C@@H](C(=O)N[C@@H](Cc2ccc(OCCCCC[N+](C)(C)C)cc2)C(=O)N[C@@H](Cc2ccc3ccccc3c2)C(=O)NC2(C(=O)N[C@@H](CCCCN(C)C(C)=O)C(=O)N[C@@H](CC(N)=O)C(=O)N[C@@H](Cc3cccnc3)C(=O)N(C)CC(=O)N(C)C)CCOCC2)NC1=O [compound 95, HOC18gEPEG12CO-Pen(3)-N(N(Me)2)-T-7MeW-K(NMeAc)-Pen(3)-TMAPF-2Nal-THP-K(NMeAc)-N-3Pya-Sar-CON(Me)2] ({C18 diacid-γGlu-PEG12}-[Pen]D(NMe2)T[Trp(7-Me)][Lys(Me)](Ac)[Pen]Y(X1)[2Nal][Thp][Lys(Me)](Ac)N[3Pal][Sar]-NMe2; disulfide 1-6) | < 50 nM | < 0.5 nM
3 | CC(=O)NCCCC[C@@H]1NC(=O)[C@H](Cc2c[nH]c3c(C)cccc23)NC(=O)[C@H]([C@@H](C)O)NC(=O)[C@H](CCCCNC(=O)COCCOCCNC(=O)COCCOCCNC(=O)CC[C@H](NC(=O)CCCCCCCCCCCCCCCCC(=O)O)C(=O)O)NC(=O)[C@@H](NC(=O)[C@@H](CCCNC(=N)N)NC(C)=O)C(C)(C)SSC(C)(C)[C@@H](C(=O)N[C@@H](Cc2ccc(OCCN)cc2)C(=O)N[C@@H](Cc2ccc3ccccc3c2)C(=O)NC2(C(=O)N[C@@H](CCCCNC(=O)CCC(=O)N[C@H](CC(=O)O)C[N+](C)(C)C)C(=O)N[C@@H](CC(N)=O)C(=O)N[C@@H](Cc3cccnc3)C(=O)N(C)CC(N)=O)CCOCC2)NC1=O [compound 12, MeCO-r-Pen(3)-K(PEG2PEG2gEC18OH)-T-7MeW-K(Ac)-Pen(3)-AEF-2Nal-THP-K(d)-N-3Pya-Sar-CONH2] (Ac-[dR][Pen]K([AEEA-AEEA-γGlu-C18 diacid])T[Trp(7-Me)]K(Ac)[Pen][AEF][2Nal][Thp]K([Suc-X2])N[3Pal][Sar]-NH2; disulfide 2-7) | < 50 nM | 0.5 to 5 nM
4 | CC(=O)NCCCC[C@@H]1NC(=O)[C@H](Cc2c[nH]c3c(C)cccc23)NC(=O)[C@H]([C@@H](C)O)NC(=O)[C@H](CCCCNC(=O)COCCOCCNC(=O)COCCOCCNC(=O)CC[C@H](NC(=O)CCCCCCCCCCCCCCCCC(=O)O)C(=O)O)NC(=O)[C@@H](NC(=O)[C@@H](CCCNC(=N)N)NC(=O)CCOCCOCC[N+](C)(C)C)C(C)(C)SSC(C)(C)[C@@H](C(=O)N[C@@H](Cc2ccc(OCCN)cc2)C(=O)N[C@@H](Cc2ccc3ccccc3c2)C(=O)NC2(C(=O)N[C@@H](CCC(=O)O)C(=O)N[C@@H](CC(N)=O)C(=O)N[C@@H](Cc3cccnc3)C(=O)N(C)CC(N)=O)CCOCC2)NC1=O [compound 55, cPEG3aCO-r-Pen(3)-K(PEG2PEG2gEC18OH)-T-7MeW-K(Ac)-Pen(3)-AEF-2Nal-THP-E-N-3Pya-Sar-CONH2] ({Me3N+(CH2)2O(CH2)2O(CH2)2CO}-[dR][Pen]K([AEEA-AEEA-γGlu-C18 diacid])T[Trp(7-Me)]K(Ac)[Pen][AEF][2Nal][Thp]EN[3Pal][Sar]-NH2; disulfide 2-7) | 50 to 500 nM | < 0.5 nM
5 | CC(=O)N(C)CCCC[C@@H]1NC(=O)[C@H](Cc2c[nH]c3c(C)cccc23)NC(=O)[C@H]([C@@H](C)O)NC(=O)[C@H](CC(=O)N(C)C)NC(=O)[C@@H](NC(=O)[C@@H](CCCCNC(=O)COCCOCCNC(=O)COCCOCCNC(=O)CC[C@H](NC(=O)CCCCCCCCCCCCCCCCCCC(=O)O)C(=O)O)NC(=O)CCOCCOCC[N+](C)(C)C)C(C)(C)SSC(C)(C)[C@@H](C(=O)N[C@@H](Cc2ccc(OCCOCC[N+](C)(C)C)cc2)C(=O)N[C@@H](Cc2ccc3ccccc3c2)C(=O)NC2(C(=O)N[C@@H](CCCCN(C)C(C)=O)C(=O)N[C@@H](CC(N)=O)C(=O)N[C@@H](Cc3cccnc3)C(=O)N(C)CC(=O)N(C)C)CCOCC2)NC1=O [compound 129, cPEG3aCO-K(PEG2PEG2gEC20OH)-Pen(3)-N(N(Me)2)-T-7MeW-K(NMeAc)-Pen(3)-TMAPF-2Nal-THP-K(NMeAc)-N-3Pya-Sar-CON(Me)2] ({Me3N+(CH2)2O(CH2)2O(CH2)2CO}-[dK]([AEEA-AEEA-γGlu-C20 diacid])[Pen]D(NMe2)T[Trp(7-Me)][Lys(Me)](Ac)[Pen]Y(CH2CH2OCH2CH2NMe3+)[2Nal][Thp][Lys(Me)](Ac)N[3Pal][Sar]-NMe2; disulfide 2-7) | < 50 nM | < 0.5 nM
6 | CC(=O)NCCCCC1NC(=O)[C@H](Cc2c[nH]c3c(C)cccc23)NC(=O)[C@H]([C@@H](C)O)NC(=O)[C@H](CC(N)=O)NC(=O)[C@@H](NC(=O)[C@H](CCCCNC(=O)COCCOCCNC(=O)COCCOCCNC(=O)CC[C@H](NC(=O)CCCCCCCCCCCCCCCCC(=O)O)C(=O)O)NC(C)=O)C(C)(C)SSC(C)(C)[C@@H](C(=O)N[C@@H](Cc2ccc(OCCN)cc2)C(=O)N[C@@H](Cc2ccc3ccccc3c2)C(=O)NC2(C(=O)N[C@@H](CCCCNC(C)=O)C(=O)N[C@@H](CC(N)=O)C(=O)N[C@@H](Cc3cccnc3)C(=O)N(C)CC(N)=O)CCOCC2)NC1=O (stereo partly drawn) [compound 39, MeCO-K(PEG2PEG2gEC18OH)-Pen(3)-N-T-7MeW-K(Ac)-Pen(3)-AEF-2Nal-THP-K(Ac)-N-3Pya-Sar-CONH2] (Ac-K([AEEA-AEEA-γGlu-C18 diacid])[Pen]NT[Trp(7-Me)][ξK](Ac)[Pen][AEF][2Nal][Thp]K(Ac)N[3Pal][Sar]-NH2; disulfide 2-7) | < 50 nM | < 0.5 nM
7 | CC(=O)NCCCC[C@@H]1NC(=O)[C@H](Cc2c[nH]c3c(C)cccc23)NC(=O)[C@H]([C@@H](C)O)NC(=O)[C@H](CC(N)=O)NC(=O)[C@@H](NC(=O)[C@@H](CCCNC(=N)N)NC(=O)COCCOCCNC(=O)COCCOCCNC(=O)CC[C@H](NC(=O)CCCCCCCCCCCCCCCCC(=O)O)C(=O)O)C(C)(C)SSC(C)(C)[C@@H](C(=O)N[C@@H](Cc2ccc(OCCN)cc2)C(=O)N[C@@H](Cc2ccc3ccccc3c2)C(=O)NC2(C(=O)N[C@@H](CCC(=O)O)C(=O)N[C@@H](CC(N)=O)C(=O)N[C@@H](Cc3cccnc3)C(=O)N(C)CC(=O)NCCOCCOCC[N+](C)(C)C)CCOCC2)NC1=O [compound 67, HOC18gEPEG2PEG2CO-r-Pen(3)-N-T-7MeW-K(Ac)-Pen(3)-AEF-2Nal-THP-E-N-3Pya-Sar-CONH(PEG3a)] ({C18 diacid-γGlu-AEEA-AEEA}-[dR][Pen]NT[Trp(7-Me)]K(Ac)[Pen][AEF][2Nal][Thp]EN[3Pal][Sar]-{NH(CH2CH2O)2CH2CH2NMe3+}; disulfide 2-7) | 50 to 500 nM | 0.5 to 5 nM
8 | CC(=O)N[C@H](CCCNC(=N)N)C(=O)N[C@@H]1C(=O)N[C@@H](CC(N)=O)C(=O)N[C@@H]([C@@H](C)O)C(=O)N[C@@H](Cc2c[nH]c3c(C)cccc23)C(=O)N[C@@H](CCC(N)=O)C(=O)N[C@H](C(=O)N[C@@H](Cc2ccc(OCCN)cc2)C(=O)N[C@@H](Cc2ccc3ccccc3c2)C(=O)NC2(C(=O)N[C@@H](CCC(=O)O)C(=O)N[C@@H](CC(N)=O)C(=O)N[C@@H](Cc3cccnc3)C(=O)N(C)CC(=O)N[C@@H](CCCCNC(=O)COCCOCCNC(=O)COCCOCCNC(=O)CC[C@H](NC(=O)CCCCCCCCCCCCCCCCC(=O)O)C(=O)O)C(=O)O)CCOCC2)C(C)(C)SSC1(C)C [compound 38, MeCO-r-Pen(3)-N-T-7MeW-Q-Pen(3)-AEF-2Nal-THP-E-N-3Pya-Sar-K(PEG2PEG2gEC18OH)-CONH2] (Ac-[dR][Pen]NT[Trp(7-Me)]Q[Pen][AEF][2Nal][Thp]EN[3Pal][Sar]K([AEEA-AEEA-γGlu-C18 diacid])-OH; disulfide 2-7) | < 50 nM | < 0.5 nM
